Source: PMC8625051, “Wound Healing Metabolites from Peters’ Elephant-Nose Fish Oil: An In Vivo Investigation Supported by In Vitro and In Silico Studies” (Marine Drugs, 2021)

How the values were obtained:
Assay type in all cases: biochemical
[1] = target: T1, COX-1 (Ovis aries, UniProt P05979); assay: In vitro COX-1 inhibitory assay (fluorometric screening kit, Biovision)
T1 construct: purchased Biovision
T1 sequence (P05979 25-600): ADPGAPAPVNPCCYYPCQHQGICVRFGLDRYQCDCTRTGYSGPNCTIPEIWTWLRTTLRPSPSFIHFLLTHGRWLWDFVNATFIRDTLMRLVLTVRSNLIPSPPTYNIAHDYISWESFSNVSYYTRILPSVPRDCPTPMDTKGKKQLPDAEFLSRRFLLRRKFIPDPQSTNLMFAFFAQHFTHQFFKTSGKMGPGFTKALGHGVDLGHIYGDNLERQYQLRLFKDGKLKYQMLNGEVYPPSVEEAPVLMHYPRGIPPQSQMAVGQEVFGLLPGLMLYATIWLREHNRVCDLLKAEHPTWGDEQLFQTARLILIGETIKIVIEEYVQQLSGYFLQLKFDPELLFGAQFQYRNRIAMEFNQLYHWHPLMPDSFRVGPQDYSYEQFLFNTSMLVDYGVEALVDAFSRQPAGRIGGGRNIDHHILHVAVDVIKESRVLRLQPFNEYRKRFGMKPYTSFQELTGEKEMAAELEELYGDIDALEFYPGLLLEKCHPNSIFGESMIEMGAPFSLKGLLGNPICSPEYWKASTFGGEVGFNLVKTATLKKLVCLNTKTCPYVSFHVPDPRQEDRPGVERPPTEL
Method: (§1) The in vitro inhibitory assays of the isolated compounds against COX-1 and COX-2 were determined by using fluorometric-based screening kits (Biovision, Switzerland) according to the manufacturer’s protocol. These assays are based on the detection of the florescence produced by prostaglandin G2, i.e., the intermediate product produced by the COX-1 and -2 enzymes. The enzymes solutions were prepared by adding […] of dd. H2O to the lyophilized enzymes in the kit. The diluted COX cofactor was formulated by mixing the COX assay buffer (398 mL) and COX Cofactor (2 mL). 5 mL of arachidonic acid were added to 5 mL of NaOH and then diluted by 90 mL of double distilled H2O to produce dilute arachidonic acid/NaOH solution. Subsequently, all these prepared solutions were mixed to produce the reaction mixture ([…]). Different concentrations of the test compounds were added to the previous solution. The reaction mixtures were then incubated at 25 °C for 10 min. […] These assays of test compounds, blank, and reference inhibitors were carried out in triplicates. IC50 values were calculated by GraphPad software (version 7.0), where the percentage inhibitions were plotted versus the log concentrations. Dividing the IC50 calculated for […] by the IC50 calculated for […] was applied to determine the Selectivity index (SI).

[2] = target: T2, COX-2 (Homo sapiens, UniProt P35354); assay: In vitro COX-2 inhibitory assay (fluorometric screening kit, Biovision)
T2 construct: purchased Biovision
T2 sequence (P35354 18-604): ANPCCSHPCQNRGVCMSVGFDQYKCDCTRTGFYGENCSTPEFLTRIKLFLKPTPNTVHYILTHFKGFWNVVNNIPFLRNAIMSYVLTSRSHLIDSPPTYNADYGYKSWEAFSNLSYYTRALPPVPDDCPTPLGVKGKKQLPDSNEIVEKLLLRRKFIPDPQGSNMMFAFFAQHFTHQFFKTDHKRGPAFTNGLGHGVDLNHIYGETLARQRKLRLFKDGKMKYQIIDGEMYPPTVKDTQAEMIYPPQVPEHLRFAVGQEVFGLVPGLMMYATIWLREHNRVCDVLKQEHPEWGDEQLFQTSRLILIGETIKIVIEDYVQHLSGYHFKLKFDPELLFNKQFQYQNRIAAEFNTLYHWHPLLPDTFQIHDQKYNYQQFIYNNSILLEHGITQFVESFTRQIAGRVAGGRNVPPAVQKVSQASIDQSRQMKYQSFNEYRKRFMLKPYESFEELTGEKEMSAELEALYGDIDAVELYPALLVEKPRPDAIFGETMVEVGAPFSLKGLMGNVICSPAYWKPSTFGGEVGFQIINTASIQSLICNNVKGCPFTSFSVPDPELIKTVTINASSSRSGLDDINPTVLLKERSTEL
Method: as §1

[3] = Hydrogen peroxide scavenging activity
Method: The residual H2O2 was determined colorimetrically. Briefly, 20 µL of the sample was added to 500 µL of H2O2 and incubated for 10 min., at 37 °C. […] The optical density of the colored product was measured at 510 nm using ascorbic acid as a positive control. The percentage of H2O2 scavenging activity was calculated by using the following formula (Equation (1)). (1) Scavenging activity=A control – A sample/A control×100 IC50 of each sample was determined at four different concentrations using Graph pad prism 7 software.

[4] = Superoxide radical scavenging activity
Method: The superoxide anion scavenging activity was measured as previously performed by […] et al., 2007 [57]. […] The reaction was initiated by adding 0.1 mL PMS solution (0.12 mM) to the mixture, incubated at 25 °C for 5 min., and the optical density was measured at 560 nm, compared to the reference ascorbic acid. The percentage inhibition was calculated using the following formula, Equation (2). (2) Superoxide scavenging activity=A control - A sample/A control×100 IC50 was calculated using Graph pad prism 7 software by performing the test at four different concentrations.

Row | SMILES | IC50 [1] [µM] | IC50 [2] [µM] | H2O2 scavenging IC50 [3] [µg/mL] | superoxide radical scavenging IC50 [4] [µg/mL] | COX-2/COX-1 ([2]; selectivity index, ratio of IC50 values)
1 | O=C1O[C@H]([C@@H](O)CO)C(O)=C1O [ascorbic acid] | – | – | 174.2 | 164 | –
2 | CC(C)CCC[C@@H](C)[C@H]1CC[C@H]2[C@@H]3CC=C4C[C@@H](O)CC[C@]4(C)[C@H]3CC[C@]12C [Compound 5, cholesterol] | > 100 | > 100 | – | – | –
3 | CCCCCCCCCCCCCCCC(=O)O [Compound 2, palmitic acid] | > 100 | > 100 | – | – | –
4 | CCCCCCCC/C=C\CCCCCCCC(=O)O [Compound 3, oleic acid] | > 100 | > 100 | – | – | –

Next, values leading:

Row | IC50 [1] [µM] | IC50 [2] [µM] | H2O2 scavenging IC50 [3] [µg/mL] | superoxide radical scavenging IC50 [4] [µg/mL] | COX-2/COX-1 ([2]; selectivity index, ratio of IC50 values) | SMILES
5 | > 100 | > 100 | – | – | – | CCCCCCCCCCc1ccccc1O [Compound 6, 2-decylphenol]
6 | > 100 | > 100 | – | – | – | CCCCCC/C=C\CCCCCCCC(=O)O [Compound 1, palmitoleic acid]
7 | 18.5 ± 0.4 | 2.41 ± 0.2 | – | – | 0.13 | CCCCCCC=CCC=CCC=CCC=CCCCCC(=O)O [Compound 4, 6,9,12,15-docosatetraenoic acid]
